Test results as given in ChEMBL document CHEMBL4765227, “Hit to lead optimization of a series of N-[4-(1,3-benzothiazol-2-yl)phenyl]acetamides as monoacylglycerol lipase inhibitors with potential anticancer activity” (Eur J Med Chem, 2016).

Experiments:
Type in all cases: functional
Settings in all cases: read-out: GI
OVCAR-8 = experiment: Growth inhibition of human OVCAR-8 cells at 10 uM incubated for 48 hrs by sulforhodamine B assay relative to control
SK-MEL-5 = experiment: Growth inhibition of human SK-MEL-5 cells at 10 uM incubated for 48 hrs by sulforhodamine B assay relative to control
SF-539 = experiment: Growth inhibition of human SF-539 cells at 10 uM incubated for 48 hrs by sulforhodamine B assay relative to control
MDA-MB-231 = experiment: Growth inhibition of human MDA-MB-231 cells at 10 uM incubated for 48 hrs by sulforhodamine B assay relative to control
NCI/ADR-RES = experiment: Growth inhibition of human NCI/ADR-RES cells at 10 uM incubated for 48 hrs by sulforhodamine B assay relative to control
SN12C = experiment: Growth inhibition of human SN12C cells at 10 uM incubated for 48 hrs by sulforhodamine B assay relative to control
UACC-62 = experiment: Growth inhibition of human UACC-62 cells at 10 uM incubated for 48 hrs by sulforhodamine B assay relative to control
NCI-H322M = experiment: Growth inhibition of human NCI-H322M cells at 10 uM incubated for 48 hrs by sulforhodamine B assay relative to control
SF-295 = experiment: Growth inhibition of human SF-295 cells at 10 uM incubated for 48 hrs by sulforhodamine B assay relative to control
K562 = experiment: Growth inhibition of human K562 cells at 10 uM incubated for 48 hrs by sulforhodamine B assay relative to control
HOP-62 = experiment: Growth inhibition of human HOP-62 cells at 10 uM incubated for 48 hrs by sulforhodamine B assay relative to control
SK-OV-3 = experiment: Growth inhibition of human SK-OV-3 cells at 10 uM incubated for 48 hrs by sulforhodamine B assay relative to control
SR = experiment: Growth inhibition of human SR cells at 10 uM incubated for 48 hrs by sulforhodamine B assay relative to control
UO-31 = experiment: Growth inhibition of human UO-31 cells at 10 uM incubated for 48 hrs by sulforhodamine B assay relative to control
DU-145 = experiment: Growth inhibition of human DU-145 cells at 10 uM incubated for 48 hrs by sulforhodamine B assay relative to control
MDA-MB-435 = experiment: Growth inhibition of human MDA-MB-435 cells at 10 uM incubated for 48 hrs by sulforhodamine B assay relative to control
RXF 393 = experiment: Growth inhibition of human RXF 393 cells at 10 uM incubated for 48 hrs by sulforhodamine B assay relative to control
MCF7 = experiment: Growth inhibition of human MCF7 cells at 10 uM incubated for 48 hrs by sulforhodamine B assay relative to control
MDA-MB-468 = experiment: Growth inhibition of human MDA-MB-468 cells at 10 uM incubated for 48 hrs by sulforhodamine B assay relative to control
HT-29 = experiment: Growth inhibition of human HT-29 cells at 10 uM incubated for 48 hrs by sulforhodamine B assay relative to control
OVCAR-4 = experiment: Growth inhibition of human OVCAR-4 cells at 10 uM incubated for 48 hrs by sulforhodamine B assay relative to control
BT-549 = experiment: Growth inhibition of human BT-549 cells at 10 uM incubated for 48 hrs by sulforhodamine B assay relative to control
CAKI-1 = experiment: Growth inhibition of human CAKI-1 cells at 10 uM incubated for 48 hrs by sulforhodamine B assay relative to control
COLO 205 = experiment: Growth inhibition of human COLO 205 cells at 10 uM incubated for 48 hrs by sulforhodamine B assay relative to control
KM12 = experiment: Growth inhibition of human KM12 cells at 10 uM incubated for 48 hrs by sulforhodamine B assay relative to control
PC-3 = experiment: Growth inhibition of human PC-3 cells at 10 uM incubated for 48 hrs by sulforhodamine B assay relative to control
Hs-578T = experiment: Growth inhibition of human Hs-578T cells at 10 uM incubated for 48 hrs by sulforhodamine B assay relative to control
U-251 = experiment: Growth inhibition of human U-251 cells at 10 uM incubated for 48 hrs by sulforhodamine B assay relative to control
OVCAR-3 = experiment: Growth inhibition of human OVCAR-3 cells at 10 uM incubated for 48 hrs by sulforhodamine B assay relative to control
TK-10 = experiment: Growth inhibition of human TK-10 cells at 10 uM incubated for 48 hrs by sulforhodamine B assay relative to control
786-0 = experiment: Growth inhibition of human 786-0 cells at 10 uM incubated for 48 hrs by sulforhodamine B assay relative to control
NCI-H226 = experiment: Growth inhibition of human NCI-H226 cells at 10 uM incubated for 48 hrs by sulforhodamine B assay relative to control
M14 = experiment: Growth inhibition of human M14 cells at 10 uM incubated for 48 hrs by sulforhodamine B assay relative to control
A549 = experiment: Growth inhibition of human A549/ATCC cells at 10 uM incubated for 48 hrs by sulforhodamine B assay relative to control
NCI-H460 = experiment: Growth inhibition of human NCI-H460 cells at 10 uM incubated for 48 hrs by sulforhodamine B assay relative to control
NCI-H23 = experiment: Growth inhibition of human NCI-H23 cells at 10 uM incubated for 48 hrs by sulforhodamine B assay relative to control
MOLT-4 = experiment: Growth inhibition of human MOLT-4 cells at 10 uM incubated for 48 hrs by sulforhodamine B assay relative to control
HL-60(TB) = experiment: Growth inhibition of human HL-60(TB) cells at 10 uM incubated for 48 hrs by sulforhodamine B assay relative to control
IGROV-1 = experiment: Growth inhibition of human IGROV-1 cells at 10 uM incubated for 48 hrs by sulforhodamine B assay relative to control
HCT-116 = experiment: Growth inhibition of human HCT-116 cells at 10 uM incubated for 48 hrs by sulforhodamine B assay relative to control
NCI-H522 = experiment: Growth inhibition of human NCI-H522 cells at 10 uM incubated for 48 hrs by sulforhodamine B assay relative to control
ACHN = experiment: Growth inhibition of human ACHN cells at 10 uM incubated for 48 hrs by sulforhodamine B assay relative to control
CCRF-CEM = experiment: Growth inhibition of human CCRF-CEM cells at 10 uM incubated for 48 hrs by sulforhodamine B assay relative to control
LOX IMVI = experiment: Growth inhibition of human LOX IMVI cells at 10 uM incubated for 48 hrs by sulforhodamine B assay relative to control

O=C(Cn1cnc2ccccc21)Nc1ccc(-c2nc3ccccc3s2)cc1
inhibition of growth at 10 µM (OVCAR-8): 28%
inhibition of growth at 10 µM (SK-MEL-5): 70.9%
inhibition of growth at 10 µM (SF-539): 22.9%
inhibition of growth at 10 µM (MDA-MB-231): 9.34%
inhibition of growth at 10 µM (NCI/ADR-RES): 38.9%
inhibition of growth at 10 µM (SN12C): 16.2%
inhibition of growth at 10 µM (UACC-62): 13%
inhibition of growth at 10 µM (NCI-H322M): 8.06%
inhibition of growth at 10 µM (SF-295): 56.7%
inhibition of growth at 10 µM (K562): 66.4%
inhibition of growth at 10 µM (HOP-62): 12.6%
inhibition of growth at 10 µM (SK-OV-3): 15.1%
inhibition of growth at 10 µM (SR): 60%
inhibition of growth at 10 µM (UO-31): 35.4%
inhibition of growth at 10 µM (DU-145): 21.8%
inhibition of growth at 10 µM (MDA-MB-435): 32.3%
inhibition of growth at 10 µM (RXF 393): 6.89%
inhibition of growth at 10 µM (MCF7): 50.6%
inhibition of growth at 10 µM (MDA-MB-468): 70.3%
inhibition of growth at 10 µM (HT-29): 12.7%
inhibition of growth at 10 µM (OVCAR-4): 57.9%
inhibition of growth at 10 µM (BT-549): 43.5%
inhibition of growth at 10 µM (CAKI-1): 38.1%
inhibition of growth at 10 µM (COLO 205): 22.5%
inhibition of growth at 10 µM (KM12): 24.9%
inhibition of growth at 10 µM (PC-3): 33.3%
inhibition of growth at 10 µM (Hs-578T): 8.79%
inhibition of growth at 10 µM (U-251): 30.6%
inhibition of growth at 10 µM (OVCAR-3): 35.8%
inhibition of growth at 10 µM (TK-10): 22.6%
inhibition of growth at 10 µM (786-0): 20.5%
inhibition of growth at 10 µM (NCI-H226): 36.9%
inhibition of growth at 10 µM (M14): 13.6%
inhibition of growth at 10 µM (A549): 39%
inhibition of growth at 10 µM (NCI-H460): 34.3%
inhibition of growth at 10 µM (NCI-H23): 51.5%
inhibition of growth at 10 µM (MOLT-4): 44.2%
inhibition of growth at 10 µM (HL-60(TB)): 29.8%
inhibition of growth at 10 µM (IGROV-1): 35.1%
inhibition of growth at 10 µM (HCT-116): 56.5%
inhibition of growth at 10 µM (NCI-H522): 33.4%
inhibition of growth at 10 µM (ACHN): 15.5%
inhibition of growth at 10 µM (CCRF-CEM): 27.1%
inhibition of growth at 10 µM (LOX IMVI): 44.6%

O=C(Cn1ccnc1)Nc1ccc(-c2nc3ccccc3s2)cc1
inhibition of growth at 10 µM (OVCAR-8): 19.7%
inhibition of growth at 10 µM (SK-MEL-5): 60.8%
inhibition of growth at 10 µM (SF-539): 18.7%
inhibition of growth at 10 µM (MDA-MB-231): 19.9%
inhibition of growth at 10 µM (NCI/ADR-RES): 11.8%
inhibition of growth at 10 µM (SN12C): 15.4%
inhibition of growth at 10 µM (UACC-62): 17.1%
inhibition of growth at 10 µM (NCI-H322M): 1.71%
inhibition of growth at 10 µM (SF-295): 34.5%
inhibition of growth at 10 µM (K562): 60.4%
inhibition of growth at 10 µM (HOP-62): 16.2%
inhibition of growth at 10 µM (SK-OV-3): 12.2%
inhibition of growth at 10 µM (SR): 63.5%
inhibition of growth at 10 µM (UO-31): 39.6%
inhibition of growth at 10 µM (DU-145): 18.9%
inhibition of growth at 10 µM (MDA-MB-435): 18.4%
inhibition of growth at 10 µM (RXF 393): -2.19%
inhibition of growth at 10 µM (MCF7): 38.7%
inhibition of growth at 10 µM (MDA-MB-468): 99.2%
inhibition of growth at 10 µM (HT-29): 6.65%
inhibition of growth at 10 µM (OVCAR-4): 65.2%
inhibition of growth at 10 µM (BT-549): 34.9%
inhibition of growth at 10 µM (CAKI-1): 33.8%
inhibition of growth at 10 µM (COLO 205): 19.2%
inhibition of growth at 10 µM (KM12): 15.6%
inhibition of growth at 10 µM (PC-3): 34.1%
inhibition of growth at 10 µM (Hs-578T): 13.1%
inhibition of growth at 10 µM (U-251): 28.1%
inhibition of growth at 10 µM (OVCAR-3): 37.8%
inhibition of growth at 10 µM (TK-10): 18.2%
inhibition of growth at 10 µM (786-0): 22%
inhibition of growth at 10 µM (NCI-H226): 33.4%
inhibition of growth at 10 µM (M14): 5.59%
inhibition of growth at 10 µM (A549): 29.7%
inhibition of growth at 10 µM (NCI-H460): 20.2%
inhibition of growth at 10 µM (NCI-H23): 42.6%
inhibition of growth at 10 µM (MOLT-4): 31.9%
inhibition of growth at 10 µM (HL-60(TB)): 22.7%
inhibition of growth at 10 µM (IGROV-1): 31.1%
inhibition of growth at 10 µM (HCT-116): 31.9%
inhibition of growth at 10 µM (NCI-H522): 25.3%
inhibition of growth at 10 µM (ACHN): 9.7%
inhibition of growth at 10 µM (CCRF-CEM): 30.9%
inhibition of growth at 10 µM (LOX IMVI): 26.6%
